Patent publication US12318382B2, “Methods of treating rheumatic diseases using trimetazidine-based compounds” (IMBRIA PHARMACEUTICALS, INC., priority 2018, dated 2025)

Experiment: Stability of CV-8972 in aqueous solution at different concentrations and pH
Type: physicochemical
Description: The stability of CV-8972 was analyzed. Aqueous samples containing CV-8972 at different concentrations and pH were incubated for various periods and analyzed.
Form A of CV-8972 were analyzed for stability in aqueous solution. Aqueous samples containing CV-8972 at different concentrations and pH were incubated for various periods and analyzed.

Question: What does the source list for COc1ccc(CN2CCN(CCOC(=O)c3cccnc3)CC2)c(OC)c1OC [CV-8972, 2-(4-(2,3,4-trimethoxybenzyl)piperazin-1-yl)ethyl nicotinate]?
Answer: Retention Time 5.6 (purity of CV-8972) (276-MBA-172 2 mg/mL pH 6 (Form A), 0 hrs): 98.01; Retention Time 5.6 (purity of CV-8972) (276-MBA-172 2 mg/mL pH 6 (Form A), 1 hrs): 97.22; Retention Time 5.6 (purity of CV-8972) (276-MBA-172 2 mg/mL pH 6 (Form A), 4 hrs): 97.01; Retention Time 5.6 (purity of CV-8972) (276-MBA-172 2 mg/mL pH 6 (Form A), 6 hrs): 96.51; Retention Time 5.6 (purity of CV-8972) (276-MBA-172 2 mg/mL pH 7 (Form A), 0 hrs): 97.53; Retention Time 5.6 (purity of CV-8972) (276-MBA-172 2 mg/mL pH 7 (Form A), 1 hrs): 95.06; Retention Time 5.6 (purity of CV-8972) (276-MBA-172 2 mg/mL pH 7 (Form A), 4 hrs): 93.7; Retention Time 5.6 (purity of CV-8972) (276-MBA-172 2 mg/mL pH 7 (Form A), 6 hrs): 92.12; Retention Time 5.6 (purity of CV-8972) (276-MBA-172 2 mg/mL pH 7 (Form A), 22 hrs): 91.07; Retention Time 5.6 (purity of CV-8972) (276-MBA-172 10 mg/mL pH 6 (Form A), 0 hrs): 95.24; Retention Time 5.6 (purity of CV-8972) (276-MBA-172 10 mg/mL pH 6 (Form A), 1 hrs): 93.43; Retention Time 5.6 (purity of CV-8972) (276-MBA-172 10 mg/mL pH 6 (Form A), 4 hrs): 91.82; Retention Time 5.6 (purity of CV-8972) (276-MBA-172 10 mg/mL pH 6 (Form A), 6 hrs): 91.8; Retention Time 5.6 (purity of CV-8972) (276-MBA-172 10 mg/mL pH 6 (Form A), 22 hrs): 89.66; Retention Time 5.6 (purity of CV-8972) (276-MBA-172 10 mg/mL pH 7 (Form A), 0 hrs): 92.85; Retention Time 5.6 (purity of CV-8972) (276-MBA-172 10 mg/mL pH 7 (Form A), 1 hrs): 89.05; Retention Time 5.6 (purity of CV-8972) (276-MBA-172 10 mg/mL pH 7 (Form A), 4 hrs): 86.8; Retention Time 5.6 (purity of CV-8972) (276-MBA-172 10 mg/mL pH 7 (Form A), 6 hrs): 84.79; Retention Time 5.6 (purity of CV-8972) (289-MBA-15-A 2 mg/mL pH 6 (Form B), 0 hrs): 97.48; Retention Time 5.6 (purity of CV-8972) (289-MBA-15-A 2 mg/mL pH 6 (Form B), 1 hrs): 95.1; Retention Time 5.6 (purity of CV-8972) (289-MBA-15-A 2 mg/mL pH 6 (Form B), 4 hrs): 92.45; Retention Time 5.6 (purity of CV-8972) (289-MBA-15-A 2 mg/mL pH 6 (Form B), 6 hrs): 90.65; Retention Time 5.6 (purity of CV-8972) (289-MBA-15-A 2 mg/mL pH 6 (Form B), 22 hrs): 89.15; Retention Time 5.6 (purity of CV-8972) (289-MBA-15-A 2 mg/mL pH 7 (Form B), 0 hrs): 97.48; Retention Time 5.6 (purity of CV-8972) (289-MBA-15-A 2 mg/mL pH 7 (Form B), 1 hrs): 95.46; Retention Time 5.6 (purity of CV-8972) (289-MBA-15-A 2 mg/mL pH 7 (Form B), 4 hrs): 93.92; Retention Time 5.6 (purity of CV-8972) (289-MBA-15-A 10 mg/mL pH 6 (Form B), 0 hrs): 95.36; Retention Time 5.6 (purity of CV-8972) (289-MBA-15-A 10 mg/mL pH 6 (Form B), 1 hrs): 94.81; Retention Time 5.6 (purity of CV-8972) (289-MBA-15-A 10 mg/mL pH 6 (Form B), 4 hrs): 94.69; Retention Time 5.6 (purity of CV-8972) (289-MBA-15-A 10 mg/mL pH 6 (Form B), 6 hrs): 94.39; Retention Time 5.6 (purity of CV-8972) (289-MBA-15-A 10 mg/mL pH 6 (Form B), 22 hrs): 93.93; Retention Time 5.6 (purity of CV-8972) (289-MBA-15-A 10 mg/mL pH 7 (Form B), 0 hrs): 91.5; Retention Time 5.6 (purity of CV-8972) (289-MBA-15-A 10 mg/mL pH 7 (Form B), 1 hrs): 86.18; Retention Time 5.6 (purity of CV-8972) (289-MBA-15-A 10 mg/mL pH 7 (Form B), 4 hrs): 82.36; Retention Time 5.6 (purity of CV-8972) (289-MBA-15-A 10 mg/mL pH 7 (Form B), 6 hrs): 79.37
